Experiment [1] concerns the target T1, human recombinant Casein kinase 18 (CK1δ) (Homo sapiens, UniProt P48730).
T1 construct: purchased Reaction Biology Corp
The experiment in a line: Kinase inhibition assay (HotSpot, Reaction Biology Corp), CK1δ. The note with it: 10 μM ATP, 10-dose IC50 mode; read-out: Compound IC50 (M) CK1δ. It is filed as biochemical.

The next experiment concerns the target T2, MINK/MINK1 (Homo sapiens, UniProt Q8N4C8).
T2 construct: purchased Reaction Biology Corp
The experiment in a line: Kinase inhibition assay (HotSpot), MINK/MINK1. It is filed as biochemical. The note with it: 10 μM ATP, 10-dose IC50 mode; read-out: Compound IC50 (M) MINK/MINK1.

For experiment [2], the system named is TGF-β-induced IL-11 in primary human parenchymal fibroblast cells (pFbs). Put plainly: Human parenchymal fibroblast cell assay, TGF-β-induced IL-11 (ELISA). The class given is cell-based. To be noted: compounds 0.1-10 μM 30 min prior to TGF-β1, 16-24 hours, 4.00* is assigned to compounds that failed to cause 50% or more inhibition at 10 µM, read-out: pIC50 IL-11 suppression (converted). The procedure: Human Parenchymal Fibroblast Cell Assay
Primary human parenchymal fibroblast cells (pFbs) were cultured from parenchyma of lung resection specimens and from non-transplanted lungs of donors without chronic respiratory disease. pFbs were passaged in Dulbecco's Modified Eagle's Media (DMEM) containing 10% (v/v) heat-inactivated fetal calf serum (FCS), 15 mM HEPES, 0.2% (v/v) sodium bicarbonate, 2 mM L-glutamine, 1% (v/v) non-essential amino acids, 1% (v/v) sodium pyruvate, 2.5 μg/mL amphotericin, 5 IU/mL penicillin and 50 μg/mL streptomycin. In some experiments the human lung fibroblast cell line, MRC5 (sourced from ATTC) was used as indicated. The MRC5 line was maintained under the same conditions as described for the pFb.
Prior to experimentation, pFb were incubated in serum-free DMEM containing 0.25% bovine serum albumin (BSA) and insulin-transferrin-selenium-containing supplement (Monomed A; CSL, Parkville, Melbourne, Australia). The cells were incubated with small molecular CK1δ inhibitors (0.1-10 μM) for 30 min prior to […] TGF-β1 (R&D Systems, Minneapolis, Minn.) and the incubation continued for 16-24 hours prior to harvest of supernatant for detection of immunoreactive IL-11. Stock solutions were made as 10 mM in 100% DMSO and diluted to the required concentration in medium containing 0.1% DMSO (final concentration).
Supernatants were collected for measurement of IL-11 (R&D DuoSet, DY218) by ELISA following the manufacturers' instructions. Generally, capture antibodies were initially diluted to the recommended concentrations using PBS buffer, and then used to coat the wells of 96-well microplates (Greiner, #655061) by adding 50 μL/well and incubated overnight at room temperature. Next day, solutions were discarded and wells were washed 3 times with wash buffer (PBS containing 0.1% (v/v) Tween-20) prior to the addition of 200 μL of blocking solution (PBS containing 1% (v/v) BSA) for 1 hour to block non-specific sites. Plates were then washed 3 times with wash buffer and 50 μL of samples or standards were then added to wells and incubated for 2 hours at room temperature. After the incubation, plates were washed 3 times with wash buffer and 50 μL of detection antibodies were added to wells and incubated for 2 hours at room temperature. Plates were then washed 3 times before adding streptavidin-conjugated horseradish peroxidase (at the recommended concentrations) for 45 min. Plates were then washed 5 times with wash buffer and 100 μL TMB substrate solution (equal parts A and B, BD Biosciences) was added to each well until sufficient signals emerged. The reactions were inactivated by adding 100 μL sulphuric acid (2M H2SO4). The absorbance was measured at 450 nm using the Multiskan Ascent® plate reader. The absorbance of the cytokine standards was fitted to a logistic equation, allowing the concentrations of cytokine in samples to be determined.
PIC50 values (the negative log of the concentration suppressing IL-11 level by 50%) for inhibition of TGF-β-induced IL-11 were interpolated from the linear regression of log concentration small molecule versus IL-11 level (Table 4 and FIG. 2).

The next experiment deals with T3, ERBB4/HER4 (Homo sapiens, UniProt Q15303).
T3 construct: purchased Reaction Biology Corp
T3 sequence (Q15303 26-1308): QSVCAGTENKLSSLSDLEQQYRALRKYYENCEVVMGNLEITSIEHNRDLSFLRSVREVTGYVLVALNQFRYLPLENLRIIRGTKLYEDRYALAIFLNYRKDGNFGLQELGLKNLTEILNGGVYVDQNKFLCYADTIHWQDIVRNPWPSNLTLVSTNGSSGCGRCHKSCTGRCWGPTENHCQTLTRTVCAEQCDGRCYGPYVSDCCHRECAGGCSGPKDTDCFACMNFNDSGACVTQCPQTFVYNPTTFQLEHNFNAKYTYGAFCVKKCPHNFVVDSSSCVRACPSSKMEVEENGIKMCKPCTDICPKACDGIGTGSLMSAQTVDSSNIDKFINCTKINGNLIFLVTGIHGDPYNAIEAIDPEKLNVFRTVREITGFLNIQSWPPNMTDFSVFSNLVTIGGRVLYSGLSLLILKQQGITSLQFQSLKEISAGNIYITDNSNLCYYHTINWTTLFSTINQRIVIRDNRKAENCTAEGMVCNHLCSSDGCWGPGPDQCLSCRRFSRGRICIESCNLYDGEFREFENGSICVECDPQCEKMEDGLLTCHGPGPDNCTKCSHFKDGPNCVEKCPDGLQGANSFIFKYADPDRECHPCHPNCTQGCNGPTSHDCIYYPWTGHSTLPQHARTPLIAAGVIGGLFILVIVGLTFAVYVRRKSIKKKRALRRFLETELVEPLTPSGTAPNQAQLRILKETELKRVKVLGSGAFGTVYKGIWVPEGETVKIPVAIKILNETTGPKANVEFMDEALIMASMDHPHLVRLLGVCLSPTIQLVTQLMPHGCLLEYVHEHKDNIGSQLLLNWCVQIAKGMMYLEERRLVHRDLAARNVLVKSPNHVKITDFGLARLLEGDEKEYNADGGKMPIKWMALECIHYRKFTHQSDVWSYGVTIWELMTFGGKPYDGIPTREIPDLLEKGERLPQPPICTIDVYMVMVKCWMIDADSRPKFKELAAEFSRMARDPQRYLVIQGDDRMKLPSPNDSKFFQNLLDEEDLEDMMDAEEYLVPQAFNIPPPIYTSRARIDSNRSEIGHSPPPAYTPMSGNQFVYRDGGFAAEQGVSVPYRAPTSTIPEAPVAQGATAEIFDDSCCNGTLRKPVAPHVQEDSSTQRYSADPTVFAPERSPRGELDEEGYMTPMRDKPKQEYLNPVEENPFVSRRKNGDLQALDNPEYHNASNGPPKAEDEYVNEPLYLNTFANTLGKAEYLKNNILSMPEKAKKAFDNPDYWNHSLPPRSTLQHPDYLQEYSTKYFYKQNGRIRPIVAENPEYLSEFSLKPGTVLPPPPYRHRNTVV
The experiment in a line: Kinase inhibition assay (HotSpot), ERBB4/HER4. To be noted: 10 μM ATP, 10-dose IC50 mode; read-out: Compound IC50 (M) ERBB4/HER4. It is filed as biochemical.

T1 sequence (P48730 whole entry): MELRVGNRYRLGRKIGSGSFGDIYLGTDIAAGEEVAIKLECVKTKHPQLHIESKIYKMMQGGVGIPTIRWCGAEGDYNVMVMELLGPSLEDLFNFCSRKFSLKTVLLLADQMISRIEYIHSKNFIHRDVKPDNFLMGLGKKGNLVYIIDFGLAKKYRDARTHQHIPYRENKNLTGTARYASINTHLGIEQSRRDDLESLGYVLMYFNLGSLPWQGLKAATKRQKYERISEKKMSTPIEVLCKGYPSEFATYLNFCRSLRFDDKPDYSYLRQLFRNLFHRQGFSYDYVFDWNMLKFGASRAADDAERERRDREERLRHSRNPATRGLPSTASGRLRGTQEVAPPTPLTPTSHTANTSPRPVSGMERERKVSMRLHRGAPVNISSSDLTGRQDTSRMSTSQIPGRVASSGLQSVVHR
T2 sequence (Q8N4C8 whole entry): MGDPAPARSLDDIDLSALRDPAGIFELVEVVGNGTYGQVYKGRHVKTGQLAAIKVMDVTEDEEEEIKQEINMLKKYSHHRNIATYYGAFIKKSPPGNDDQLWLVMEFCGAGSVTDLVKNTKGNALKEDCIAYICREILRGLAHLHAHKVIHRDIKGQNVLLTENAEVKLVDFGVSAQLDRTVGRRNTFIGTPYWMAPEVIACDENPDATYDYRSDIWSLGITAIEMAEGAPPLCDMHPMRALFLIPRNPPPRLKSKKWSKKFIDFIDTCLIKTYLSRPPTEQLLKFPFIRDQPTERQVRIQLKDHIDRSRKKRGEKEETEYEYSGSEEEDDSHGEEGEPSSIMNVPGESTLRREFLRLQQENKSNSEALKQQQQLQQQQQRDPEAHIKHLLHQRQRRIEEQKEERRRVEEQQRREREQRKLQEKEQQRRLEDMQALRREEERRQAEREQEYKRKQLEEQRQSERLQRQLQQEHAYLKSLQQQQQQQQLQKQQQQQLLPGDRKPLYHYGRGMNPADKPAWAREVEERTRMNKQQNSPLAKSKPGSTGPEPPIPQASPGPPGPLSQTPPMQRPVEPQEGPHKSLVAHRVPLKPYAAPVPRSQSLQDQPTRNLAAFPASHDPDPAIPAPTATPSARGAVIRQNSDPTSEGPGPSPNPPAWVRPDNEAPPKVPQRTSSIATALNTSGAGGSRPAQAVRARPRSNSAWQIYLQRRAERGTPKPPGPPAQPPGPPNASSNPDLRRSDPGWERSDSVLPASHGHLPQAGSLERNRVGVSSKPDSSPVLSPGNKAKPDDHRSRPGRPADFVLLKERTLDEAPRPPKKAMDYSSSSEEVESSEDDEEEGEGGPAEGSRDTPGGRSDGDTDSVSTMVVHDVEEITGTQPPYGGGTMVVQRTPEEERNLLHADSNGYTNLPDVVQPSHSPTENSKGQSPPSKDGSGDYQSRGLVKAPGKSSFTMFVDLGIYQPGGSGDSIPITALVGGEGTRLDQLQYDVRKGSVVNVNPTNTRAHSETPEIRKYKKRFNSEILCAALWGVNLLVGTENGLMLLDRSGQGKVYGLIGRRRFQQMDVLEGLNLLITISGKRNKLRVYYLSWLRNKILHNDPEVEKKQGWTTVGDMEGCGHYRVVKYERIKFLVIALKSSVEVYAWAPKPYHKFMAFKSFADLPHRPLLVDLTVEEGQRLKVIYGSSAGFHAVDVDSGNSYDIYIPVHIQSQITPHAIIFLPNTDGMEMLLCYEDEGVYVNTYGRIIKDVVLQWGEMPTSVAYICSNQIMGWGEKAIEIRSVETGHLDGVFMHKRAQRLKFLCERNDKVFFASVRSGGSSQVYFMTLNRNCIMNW

With `Fc1ccc(CNc2nccc(-c3c(-c4ccc(F)cc4)ncn3C3CCCCC3)n2)cc1` [ZH2-122, 4-(1-Cyclohexyl-4-(4-fluorophenyl)-1H-imidazol-5-yl)-N-(4-fluorobenzyl)pyrimidin-2-amine], the IC50 was 5.07e-09 M in experiment [1], 1.95e-08 M on MINK/MINK1 and 2450 nM in experiment [2].

Consider `Fc1ccc(-c2ncn(C3CCCCC3)c2-c2ccnc(NCc3cccc(F)c3)n2)cc1` [ZH2-114, 4-(1-Cyclohexyl-4-(4-fluorophenyl)-1H-imidazol-5-yl)-N-(3-fluorobenzyl)pyrimidin-2-amine], for which the IC50 in experiment [1] was determined as 3.67e-09 M; on MINK/MINK1, 3.33e-08 M.

Turning to `Fc1ccc(-c2ncn(C3CCCCC3)c2-c2ccnc(NC3CCCC3)n2)cc1` [ZH2-46, 4-(1-Cyclohexyl-4-(4-fluorophenyl)-1H-imidazol-5-yl)-N-cyclopentylpyrimidin-2-amine], the IC50 came out at 4.99e-09 M in experiment [1], 9.01e-06 M at ERBB4/HER4 and 6.69e-08 M at MINK/MINK1.

As to `O=S1(=O)CCC(Nc2nccc(-c3c(-c4ccc(F)cc4)ncn3C3CCCCC3)n2)CC1` [ZH3-134, 4-((4-(1-Cyclohexyl-4-(4-fluorophenyl)-1H-imidazol-5-yl)pyrimidin-2-yl)amino)tetrahydro-2H-thiopyran 1,1-dioxide], the figures for the IC50 (in experiment [1]; on MINK/MINK1) were 1.15e-09 M and 3.77e-08 M, respectively.

Turning to `O[C@H]1C[C@H](Nc2nccc(-c3c(-c4ccc(F)cc4)ncn3C3CCCCC3)n2)C1` [ZH3-50, trans-3-((4-(1-Cyclohexyl-4-(4-fluorophenyl)-1H-imidazol-5-yl)pyrimidin-2-yl)amino)cyclobutan-1-ol], the IC50 in experiment [1] is 1.36e-09 M; at ERBB4/HER4, 4.41e-06 M; at MINK/MINK1, 1.73e-08 M; in experiment [2] it was 417 nM.

As for `Fc1ccc(-c2ncn(C3CCCCC3)c2-c2ccnc(NC3CC3)n2)cc1` [ZH3-86, 4-(1-Cyclohexyl-4-(4-fluorophenyl)-1H-imidazol-5-yl)-N-cyclopropylpyrimidin-2-amine], the IC50 is 7.59e-09 M in experiment [1], 1.48e-06 M on ERBB4/HER4, 1.06e-08 M on MINK/MINK1 and 339 nM in experiment [2].

On to `Nc1nccc(-c2c(-c3ccc(F)cc3)ncn2C2CCCC2)n1` [ZH3-58, 4-(1-Cyclopentyl-4-(4-fluorophenyl)-1H-imidazol-5-yl)pyrimidin-2-amine], for which the IC50 is 8.33e-09 M in experiment [1], 1.39e-06 M on ERBB4/HER4, 2.17e-07 M at MINK/MINK1 and 550 nM in experiment [2].

For `Fc1ccc(-c2ncn(C3CCCCC3)c2-c2ccnc(NC3CCCCC3)n2)cc1` [ZH2-58, N-Cyclohexyl-4-(1-cyclohexyl-4-(4-fluorophenyl)-1H-imidazol-5-yl)pyrimidin-2-amine], the IC50 in experiment [1] is 1.95e-08 M; at ERBB4/HER4 it was above 1e-05 M; on MINK/MINK1, 2.36e-07 M; in experiment [2] it was 29500 nM.

On to `Fc1ccc(-c2ncn(C3CCCCC3)c2-c2ccnc(NC3CC(F)(F)C3)n2)cc1` [ZH3-70, 4-(1-Cyclohexyl-4-(4-fluorophenyl)-1H-imidazol-5-yl)-N-(3,3-difluorocyclobutyl)pyrimidin-2-amine], for which the IC50 was found to be 1e-09 M in experiment [1] and 2.16e-08 M at MINK/MINK1.

Turning to `Fc1ccc(-c2ncn(C3CCCCC3)c2-c2ccnc(NC3CCC(F)(F)CC3)n2)cc1` [ZH2-146, 4-(1-Cyclohexyl-4-(4-fluorophenyl)-1H-imidazol-5-yl)-N-(4,4-difluorocyclohexyl)pyrimidin-2-amine], the figures for the IC50 (in experiment [1]; at MINK/MINK1; in experiment [2]) were 4.93e-09 M, 1.1e-07 M and 11500 nM, respectively.

On to `Fc1ccc(-c2ncn(C3CCCCC3)c2-c2ccnc(NC3CCOCC3)n2)cc1` [ZH2-54, 4-(1-Cyclohexyl-4-(4-fluorophenyl)-1H-imidazol-5-yl)-N-(tetrahydro-2H-pyran-4-yl)pyrimidin-2-amine], for which the IC50 in experiment [1] was 1.73e-09 M; on MINK/MINK1, 1.7e-07 M; in experiment [2], 4370 nM.

These data come from patent publication US20220281846A1, “COMPOUNDS AND COMPOSITIONS FOR THE TREATMENT OF RESPIRATORY DISEASES” (THE UNIVERSITY OF MELBOURNE, priority 2018, published 2022).
